{
  "source": "paper PMC6510840",
  "about": "“A phase 1b study of transforming growth factor-beta receptor I inhibitor galunisertib in combination with sorafenib in Japanese patients with unresectable hepatocellular carcinoma” (Investigational New Drugs, 2018)",
  "key": {"[1]": {"experiment": "Noncompartmental plasma pharmacokinetics in phase 1b study", "assay_type": "in vivo, human", "conditions": "for Tmax / half-life / AUC(0-t) / Cmax / AUC(0-inf) / Vd/F: human, plasma; for Cmax: geometric mean (CV%); for Vd/F: read-out: VZ/F", "description": "PK analyses were conducted on patients who received at least one dose of galunisertib and had PK samples collected. The PK parameters for galunisertib were calculated by standard noncompartmental methods of analysis using Phoenix™ WinNonlin® 6.4 (Pharsight, A Certara Company; Princeton, NJ, USA). The maximum plasma concentration, time to maximum plasma concentration (tmax), area under the plasma concentration versus time curve from time zero to the last time point with a measurable concentration, and area under the plasma concentration-time curve from time zero to infinity, half-life (t1/2), apparent total body clearance (CL/F), and apparent volume of distribution during the terminal phase (Vz/F) that could be calculated from the data were reported for galunisertib from the noncompartmental PK analyses. Sorafenib PK profiles on day 22 (sorafenib monotherapy) were compared with sorafenib PK profiles on day 14 (administration of galunisertib in combination with sorafenib) within the same patient and in each cohort."}, "HCC": {"system": "HCC", "parameters": "method as in PMID 18650514", "conditions": "sorafenib arm, global SHARP study; cited from earlier work"}, "advanced HCC": {"system": "advanced HCC", "parameters": "method as in earlier work", "conditions": "galunisertib monotherapy, cited from earlier work"}, "[2]": {"system": "Japanese patients with unresectable hepatocellular carcinoma", "experiment": "Safety and tolerability (DLTs, TEAEs, SAEs, QTc) in phase 1b study", "conditions": "for 14 days (then 14 days rest), in combination with sorafenib", "procedure": "All eligible patients in this phase 1b, open-label, dose-escalation, multicenter, nonrandomized study received oral administration of galunisertib (160 mg or 300 mg/day) in combination with oral administration of sorafenib 800 mg/day. A cycle was defined as 28 days. Galunisertib was administered at either 80 mg twice daily or 150 mg twice daily for 14 days, followed by 14 days of galunisertib treatment rest, and sorafenib 400 mg twice daily for 28 days. Patients continued treatment until a discontinuation criterion was met.\nThe DLT evaluation period was 28 days after the first dose. Tolerability was defined as a dose where 2 or fewer of 6 patients experience DLTs. A minimum of 3 patients were planned to be enrolled in the galunisertib 160 mg/day plus sorafenib group, and a minimum of 6 patients were planned to be enrolled in the galunisertib 300 mg/day plus sorafenib group. […]\nThe sample size was determined based on the study design to evaluate the DLTs, safety, and tolerability of galunisertib in two sequential study treatment groups. […] Patients without a DLT who discontinued the study in cycle 1 due to disease progression, or discontinued sorafenib in cycle 1 for reasons other than disease progression, were assessed for appropriateness of DLT evaluation per Efficacy and Safety Evaluation Committee recommendations. […]"}, "[3]": {"conditions": "po, Galunisertib 160 mg/day plus sorafenib, Cycle 1 Day 14, geometric mean (CV%), n = 3"}, "[4]": {"conditions": "po, Galunisertib 300 mg/day plus sorafenib, Cycle 1 Day 14, geometric mean (CV%), n = 3"}},
  "note": "Where two headings read alike, the source gives them in different places. Marks after values point to notes of the source that are not given here.",
  "data": [
    {"smiles": "CNC(=O)c1cc(Oc2ccc(NC(=O)Nc3ccc(Cl)c(C(F)(F)F)c3)cc2)ccn1", "note": "[sorafenib]", "values": [
      {"measurement": "PK profile of sorafenib in combination with galunisertib", "setting": "[1]; day 14 (with galunisertib) versus day 22 (sorafenib monotherapy), data not shown", "result": "comparable to that of sorafenib administered alone"},
      {"measurement": "median OS", "setting": "HCC", "result": 10.7, "unit": "months"}
    ]},
    {"smiles": "Cc1cccc(-c2nn3c(c2-c2ccnc4ccc(C(N)=O)cc24)CCC3)n1", "note": "[Galunisertib, galunisertib]", "values": [
      {"measurement": "CL/F", "setting": "[1]; Galunisertib 160 mg/day plus sorafenib, Cycle 1 Day 14, geometric mean (CV%), n = 3", "result": "10.1 (4)^d L/h"},
      {"measurement": "CL/F", "setting": "[1]; Galunisertib 160 mg/day plus sorafenib, Cycle 1 Day 14, geometric mean (CV%), n = 3, listed as galunisertib", "result": 10.1, "unit": "L/h"},
      {"measurement": "CL/F", "setting": "[1]; Galunisertib 300 mg/day plus sorafenib, Cycle 1 Day 14, geometric mean (CV%), n = 3", "result": "13.5 (9)^d L/h"},
      {"measurement": "CL/F", "setting": "[1]; Galunisertib 300 mg/day plus sorafenib, Cycle 1 Day 14, geometric mean (CV%), n = 3, listed as galunisertib", "result": 13.5, "unit": "L/h"},
      {"measurement": "Tmax", "setting": "[1]; oral, both galunisertib doses (160 and 300 mg/day) plus sorafenib, post-dose, read-out: median tmax", "result": "1 to 2", "unit": "h"},
      {"measurement": "half-life", "setting": "[1]; oral, both galunisertib doses (160 and 300 mg/day) plus sorafenib, read-out: mean t1/2 (converted)", "result": "~4", "unit": "h"},
      {"measurement": "AUC(0-t)", "setting": "[1]; po, 160 mg/day, Galunisertib 160 mg/day plus sorafenib, Cycle 1 Day 1, geometric mean (CV%), N 7, read-out: AUC(0-6)", "result": 2800, "unit": "ng·h/mL"},
      {"measurement": "Tmax", "setting": "[1]; po, 160 mg/day, Galunisertib 160 mg/day plus sorafenib, Cycle 1 Day 1, median (range), N 7, read-out: tmax", "result": 1.93, "unit": "h"},
      {"measurement": "Cmax", "setting": "[1]; po, 160 mg/day, Galunisertib 160 mg/day plus sorafenib, Cycle 1 Day 1, plasma, N 7", "result": 899, "unit": "ng/mL"},
      {"measurement": "AUC(0-t)", "setting": "[1]; po, 160 mg/day, Galunisertib 160 mg/day plus sorafenib, Cycle 1 Day 14, geometric mean (CV%), N 7, read-out: AUC(0-6)", "result": 3670, "unit": "ng·h/mL"},
      {"measurement": "AUC(0-t)", "setting": "[1]; po, 160 mg/day, Galunisertib 160 mg/day plus sorafenib, Cycle 1 Day 14, geometric mean (CV%), n = 6, read-out: AUC(0–24)", "result": 7170, "unit": "ng·h/mL"},
      {"measurement": "Tmax", "setting": "[1]; po, 160 mg/day, Galunisertib 160 mg/day plus sorafenib, Cycle 1 Day 14, median (range), N 7, read-out: tmax", "result": 1.85, "unit": "h"},
      {"measurement": "Cmax", "setting": "[1]; po, 160 mg/day, Galunisertib 160 mg/day plus sorafenib, Cycle 1 Day 14, plasma, N 7", "result": 1150, "unit": "ng/mL"},
      {"measurement": "AUC(0-t)", "setting": "[1]; po, 300 mg/day, Galunisertib 300 mg/day plus sorafenib, Cycle 1 Day 1, geometric mean (CV%), N 7, read-out: AUC(0-6)", "result": 5040, "unit": "ng·h/mL"},
      {"measurement": "Tmax", "setting": "[1]; po, 300 mg/day, Galunisertib 300 mg/day plus sorafenib, Cycle 1 Day 1, median (range), N 7, read-out: tmax", "result": 0.93, "unit": "h"},
      {"measurement": "Cmax", "setting": "[1]; po, 300 mg/day, Galunisertib 300 mg/day plus sorafenib, Cycle 1 Day 1, plasma, N 7", "result": 1900, "unit": "ng/mL"},
      {"measurement": "AUC(0-t)", "setting": "[1]; po, 300 mg/day, Galunisertib 300 mg/day plus sorafenib, Cycle 1 Day 14, geometric mean (CV%), N 4, read-out: AUC(0-6)", "result": 5570, "unit": "ng·h/mL"},
      {"measurement": "AUC(0-t)", "setting": "[1]; po, 300 mg/day, Galunisertib 300 mg/day plus sorafenib, Cycle 1 Day 14, geometric mean (CV%), N 4, read-out: AUC(0–24)", "result": 10600, "unit": "ng·h/mL"},
      {"measurement": "Tmax", "setting": "[1]; po, 300 mg/day, Galunisertib 300 mg/day plus sorafenib, Cycle 1 Day 14, median (range), N 4, read-out: tmax", "result": 2.04, "unit": "h"},
      {"measurement": "Cmax", "setting": "[1]; po, 300 mg/day, Galunisertib 300 mg/day plus sorafenib, Cycle 1 Day 14, plasma, N 4", "result": 2000, "unit": "ng/mL"},
      {"measurement": "AUC(0-inf)", "setting": "[1]; [3]", "result": 7870, "unit": "ng·h/mL"},
      {"measurement": "Vd/F", "setting": "[1]; [3]", "result": 62, "unit": "L"},
      {"measurement": "half-life", "setting": "[1]; po, Galunisertib 160 mg/day plus sorafenib, Cycle 1 Day 14, geometric mean (range), n = 3, read-out: t1/2 (converted)", "result": 4.24, "unit": "h"},
      {"measurement": "AUC(0-inf)", "setting": "[1]; [4]", "result": 11100, "unit": "ng·h/mL"},
      {"measurement": "Vd/F", "setting": "[1]; [4]", "result": 78.1, "unit": "L"},
      {"measurement": "half-life", "setting": "[1]; po, Galunisertib 300 mg/day plus sorafenib, Cycle 1 Day 14, geometric mean (range), n = 3, read-out: t1/2 (converted)", "result": 4.01, "unit": "h"},
      {"measurement": "median OS", "setting": "advanced HCC; AFP <1.5 ULN (part B), 90% CI 10.4–24.1", "result": 16.8, "unit": "months"},
      {"measurement": "median OS", "setting": "advanced HCC; baseline AFP ≥1.5 ULN (part A), 90% CI 5.3–9.3", "result": 7.2, "unit": "months"},
      {"measurement": "median time-to-progression (TTP)", "setting": "advanced HCC; part A, 90% CI 1.4−2.9", "result": 2.7, "unit": "months"},
      {"measurement": "median time-to-progression (TTP)", "setting": "advanced HCC; part B, 90% CI 2.3–5.5", "result": 4.1, "unit": "months"},
      {"measurement": "recommended dose of galunisertib with confirmed tolerability", "setting": "[2]", "result": 150, "unit": "mg twice daily"}
    ]}
  ]
}
